Key:
[1] = Hygroscopicity test at room temperature/95% RH in an open system; assay type: physicochemical
[2] = Stress study at 40° C./75% RH in closed system (appearance, HPLC)

SMILES | hygroscopicity compared with D-cycloserine and the carboxylic acids alone [1] | water absorbed at the 30th day ([1]; FIG. 42) | water absorbed at the 30th day ([1]; FIG. 41) | water absorbed at the 60th day ([1]; FIG. 40) | also measured
N[C@@H]1CONC1=O.N[C@@H]1CONC1=O.O=C(O)C(O)C(O)C(=O)O [D-cycloserine D-tartrate] | much less hygroscopic | 1.3% |  |  | hygroscopicity (in words) ([1]; 30 days, FIG. 42): not hygroscopic
N[C@@H]1CONC1=O [D-cycloserine from Strides Shasun Ltd., D-cycloserine] |  | 42.7% | 41.9% | 59.2% | 
N[C@@H]1CONC1=O [D-cycloserine] |  | 43.3% | 41.3% | 62.5% | appearance after one month stress study ([2]; 40° C./75% RH, one month): disintegrated and turned into dark yellow
O=C(O)/C=C\C(=O)O [Maleic acid, maleic acid] |  |  | 100.4% |  | 
O=C(O)[C@H](O)[C@@H](O)C(=O)O [L-tartaric acid] |  |  |  | 244.6% | 
O=C(O)[C@@H](O)[C@H](O)C(=O)O [D-tartaric acid] |  | 177.0% |  |  | stability by HPLC after stress study ([2]; 40/75% RH, 30 days, FIG. 39): stable
N[C@@H]1CONC1=O.O=C(O)C(O)C(O)C(=O)O [D-cycloserine L-tartrate] | much less hygroscopic |  |  | 18.9% | hygroscopicity (in words) ([1]; 30 days, FIG. 41): not hygroscopic; hygroscopicity (in words) ([1]; 60 days, FIG. 40): not hygroscopic
N[C@@H]1CONC1=O.O=C(O)/C=C\C(=O)O [D-cycloserine maleate (1:1) salt form, D-cycloserine maleate] | much less hygroscopic |  | 1.3% |  | 

From patent US12178804B2, “Salts of cycloserine compounds and applications thereof” (SyneuRx International (Taiwan) Corp., priority 2018, dated 2024)
